We go through 14 compounds from ChEMBL document CHEMBL3286224, “Optimization of ketone-based P2Y(12) receptor antagonists as antithrombotic agents: pharmacodynamics and receptor kinetics considerations” (Bioorg Med Chem Lett, 2014).

Converted amounts (≈) assume the structure as drawn. The source made the active and inactive calls. The calls are words filed in the database; no cut-off is given here. A value given as a limit tells only on which side of the number the result lay.

The nature of series [1]: Aqueous solubility of the compound. The series is classed as physicochemical. As to conditions: buffer.
In series [2] the test system is Plasma. In words: Fraction unbound in Beagle dog plasma at 37 degC after 18 hrs by equilibrium dialysis technique. Format: ADME, cell-free, Canis lupus familiaris.
Series [3] can be described thus: Half life in Beagle dog at 1 umol/kg, iv. The series is classed as ADME, organism-based, Canis lupus familiaris. To be noted: in vivo.
Series [4] is described as follows: AUC in Beagle dog at 1 umol/kg, iv. Format: ADME, organism-based, Canis lupus familiaris. To be noted: plasma.
In series [5] the test system is Canis familiaris. Description: Antithrombotic activity in conscious dog assessed as inhibition of platelet aggregation administered via infusion. Format: functional, Canis lupus familiaris.
For series [6], the system named is Canis familiaris. In words: Toxicity in conscious dog assessed as prolongation of bleeding time at 1.6 umol/kg/min administered via infusion relative to control. The series is classed as organism-based, Canis lupus familiaris. As to conditions: in vivo, iv.
For series [7], the species on record is Canis familiaris. In words: Antithrombotic activity in dog Folt's model of arterial thrombosis assessed as inhibition of platelet aggregation. The series is classed as functional, Canis lupus familiaris.
The subject of series [8] is Canis familiaris. Description: Toxicity in dog Folt's model of arterial thrombosis assessed as prolongation of bleeding time at 0.015 umol/kg/min. Format: organism-based, Canis lupus familiaris. As to conditions: in vivo, iv.
The target in series [9] is P2Y purinoceptor 1 (Homo sapiens) (UniProt P47900). Description: Binding affinity to P2Y1 receptor (unknown origin) at 10 uM.
Series [10] deals with Platelet-activating factor receptor (Homo sapiens) (UniProt P25105). Description: Binding affinity to PAF receptor (unknown origin) at 10 uM.
Series [11] has as its target T1, Thromboxane A2 receptor (Homo sapiens) (UniProt P21731).
T1 sequence (whole entry): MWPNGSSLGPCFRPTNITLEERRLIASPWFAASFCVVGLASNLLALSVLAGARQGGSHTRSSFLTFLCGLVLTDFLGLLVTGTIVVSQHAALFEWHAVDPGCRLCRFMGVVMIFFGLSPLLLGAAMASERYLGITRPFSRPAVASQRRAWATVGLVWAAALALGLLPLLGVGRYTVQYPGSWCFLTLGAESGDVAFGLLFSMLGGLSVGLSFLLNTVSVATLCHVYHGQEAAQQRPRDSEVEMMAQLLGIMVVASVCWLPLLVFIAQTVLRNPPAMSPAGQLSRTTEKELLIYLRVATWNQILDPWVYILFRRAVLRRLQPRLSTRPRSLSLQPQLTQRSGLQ
In words: Binding affinity to thromboxane A2 receptor (unknown origin) at 10 uM.

Series [12] concerns the target T2, P2Y purinoceptor 12 (Homo sapiens, UniProt Q9H244). Description: Displacement of [125I]AZ11931285 from human P2Y12 receptor expressed in CHOK1 cell membrane after 10 seconds. Further details: species or system CHO-K1.
Series [13] has as its target T2, P2Y purinoceptor 12. Description: Displacement of [125I]AZ11931285 from human P2Y12 receptor expressed in CHOK1 cell membrane after 30 seconds. Further details: species or system CHO-K1. For orientation: Displacement assays read how much labelled ligand stays bound in the presence of the test substance.
Series [14] has as its target T2, P2Y purinoceptor 12. In words: Displacement of [125I]AZ11931285 from human P2Y12 receptor expressed in CHOK1 cell membrane after 60 seconds. Further details: species or system CHO-K1.
In series [15] the target is T2, P2Y purinoceptor 12. Description: Displacement of [125I]AZ11931285 from human P2Y12 receptor expressed in CHOK1 cell membrane after 60 mins. Further details: species or system CHO-K1.
Series [16] addresses T2, P2Y purinoceptor 12.
Description: Antagonist activity at P2Y12 receptor (unknown origin) assessed as inhibition of ADP-induced [35S]GTPgammaS binding after 45 mins by scintillation counting analysis
Series [17] can be described thus: in vitro. As to conditions: human, liver microsomes.
Description: Half life in human liver microsomes at 1 mg/ml
Series [18] in a line: in vitro. To be noted: human, Caco-2, pH 7.4.
Description: (§1) Apparent permeability from apical to basolateral side in human Caco2 cells at 10 uM at pH 7.4 after 60 mins by LC-MS analysis
Series [19] is described as follows: physchem. To be noted: buffer, pH 7.4.
Description: Lipophilicity, log D of the compound at pH 7.4 by HPLC analysis
Series [20] can be described thus: Apparent permeability from apical to basolateral side in human Caco2 cells at 10 uM at pH 6.5 after 60 mins by LC-MS analysis. Format: ADME, cell-based. As to conditions: Caco-2, pH 6.5. A general note: Caco-2 monolayers are a common model of the intestinal barrier.
Series [21] has as its system Canis familiaris. Description: Toxicity in conscious dog assessed as prolongation of bleeding time at 0.02 to 8700 nmol/kg/min administered via infusion relative to control. The series is classed as organism-based, Canis lupus familiaris. To be noted: in vivo, iv.
In series [22] the test system is Canis familiaris. In words: Toxicity in dog Folt's model of arterial thrombosis assessed as prolongation of bleeding time at 0.001 to 0.1 umol/kg/min. Format: organism-based, Canis lupus familiaris. As to conditions: in vivo, iv.
Series [23] has as its system Caco-2. To be noted: human, caco-2, pH 7.4, 1 h, 10 µM.
Description: as §1

T2 sequence (Q9H244 whole entry): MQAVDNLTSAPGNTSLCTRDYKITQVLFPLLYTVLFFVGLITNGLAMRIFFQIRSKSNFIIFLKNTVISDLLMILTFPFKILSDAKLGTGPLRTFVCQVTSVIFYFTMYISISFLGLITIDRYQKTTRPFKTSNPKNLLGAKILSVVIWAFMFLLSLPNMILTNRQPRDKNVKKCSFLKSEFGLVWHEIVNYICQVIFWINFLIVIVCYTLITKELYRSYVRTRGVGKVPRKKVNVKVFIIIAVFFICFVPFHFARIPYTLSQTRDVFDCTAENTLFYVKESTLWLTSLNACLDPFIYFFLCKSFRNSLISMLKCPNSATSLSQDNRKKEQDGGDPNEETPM
Sequence of P2Y purinoceptor 1 (Homo sapiens) (P47900 whole entry): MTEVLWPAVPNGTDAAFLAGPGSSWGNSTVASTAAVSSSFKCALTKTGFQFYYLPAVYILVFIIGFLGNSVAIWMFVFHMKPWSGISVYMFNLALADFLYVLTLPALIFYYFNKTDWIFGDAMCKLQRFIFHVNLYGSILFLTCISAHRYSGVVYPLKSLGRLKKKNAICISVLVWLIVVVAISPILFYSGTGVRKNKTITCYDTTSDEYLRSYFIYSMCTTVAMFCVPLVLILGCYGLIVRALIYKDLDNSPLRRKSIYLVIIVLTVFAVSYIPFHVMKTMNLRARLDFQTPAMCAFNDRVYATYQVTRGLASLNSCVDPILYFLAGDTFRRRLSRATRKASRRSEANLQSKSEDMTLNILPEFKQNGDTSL
Sequence of Platelet-activating factor receptor (Homo sapiens) (P25105 whole entry): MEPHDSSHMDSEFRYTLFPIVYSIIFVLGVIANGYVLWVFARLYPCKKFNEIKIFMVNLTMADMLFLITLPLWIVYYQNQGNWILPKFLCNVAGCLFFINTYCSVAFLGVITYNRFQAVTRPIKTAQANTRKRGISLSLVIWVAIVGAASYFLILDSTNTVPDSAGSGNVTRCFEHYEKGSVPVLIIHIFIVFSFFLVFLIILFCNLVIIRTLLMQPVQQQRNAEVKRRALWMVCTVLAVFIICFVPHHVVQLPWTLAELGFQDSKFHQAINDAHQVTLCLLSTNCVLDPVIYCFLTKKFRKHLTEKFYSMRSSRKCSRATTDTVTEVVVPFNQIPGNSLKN

As for `CCCC(=O)c1cc(C#N)c(N2CCC(C(=O)NS(=O)(=O)C3(c4ccccc4)CC3)CC2)nc1SC`, in [1], the concentration in solution (solubility) came to 78 µM (≈ 41.1 µg/mL). Moreover, in series [2], the Fu came to 0.41%. The half-life – broadly, the time in which the quantity being followed falls by half – in [3] was 5.2 h; in series [17], > 1.92 h. Besides, the AUC – broadly, the area under the concentration-time curve, a measure of exposure – in series [4] came to 6.7 µM·h. For the same compound, the ID80 in series [5] worked out at 0.052 µmol/kg/min; in [7], 0.005 µmol/kg/min. For the same compound, in series [5] (Canis lupus familiaris), the inhibition entry was “Dose-dependent effect”. Besides, the “fold change (FC)” value in series [6] came to 6.7. In series [8], the Activity entry is recorded as “Toxic”. For the same compound, the outcome in [9], in series [10] and in series [11] was inactive. The IC50 – broadly, the midpoint of a concentration-inhibition curve – in series [12] worked out at 0.126 µM; in series [13], 0.041 µM; in series [14] it was 0.023 µM; in [15], 0.004 µM; in series [16] it was 0.019 µM. The Papp A→B (commonly the apparent permeability from the apical to the basolateral side of a cell layer) at 1 h, 10 µM in series [18] worked out at 2 ×10⁻⁶ cm/s.
The compound `CCCC(=O)c1cc(C#N)c(N2CCC(C(=O)NS(=O)(=O)Cc3ccccc3)CC2)nc1CCC` gave an IC50 in [16] of 0.27 µM. In [18], the Papp A→B at 1 h, 10 µM was found to be 1.2 ×10⁻⁶ cm/s. For the same compound, the logD (as a rule, lipophilicity at a set pH, counting ionised and neutral species) in [19] is 3.7.
For `CCCC(=O)c1cc(C#N)c(N2CCC(C(=O)NS(=O)(=O)C3(c4ccccc4)CC3)CC2)nc1C`, the solubility (in general, the dissolved amount per volume that the medium holds) in [1] is > 100 µM. The Papp A→B at 1 h, 10 µM in series [20] was found to be 5.2 ×10⁻⁶ cm/s. The compound further yielded an IC50 in series [16] of 0.16 µM. Also, in [17], the half-life is > 1.92 h. In [19], this compound gave a logD of 3.9.
Turning to `CCCC(=O)c1cc(C#N)c(N2CCC(C(=O)NS(=O)(=O)Cc3ccccc3)CC2)nc1CF`, half-maximal inhibition in series [16] (IC50) was put at 0.093 µM. Also, the Papp A→B at 1 h, 10 µM in series [18] is < 0.1 ×10⁻⁶ cm/s. In addition, in [19], the logD came out at 2.7.
As to `CCCC(=O)c1cc(C#N)c(N2CCC(C(=O)NS(=O)(=O)C(C)c3ccccc3)CC2)nc1C` (racemic), the solubility in series [1] was > 100 µM. In addition, the Papp A→B at 1 h, 10 µM in series [20] came out at 1 ×10⁻⁶ cm/s. In [16], this compound showed an IC50 of 0.19 µM. For the same compound, the half-life in series [17] was > 1.92 h. In addition, in series [19], the logD was found to be 3.3.
For `CCCC(=O)c1cc(C#N)c(N2CCC(C(=O)NS(=O)(=O)Cc3ccccc3)CC2)nc1OC`, the logD in series [19] is 3.
Consider `CCCC(=O)c1cc(C#N)c(N2CCC(C(=O)NS(=O)(=O)Cc3ccccc3)CC2)nc1C`, for which the solubility in series [1] was > 100 µM. Further, the Papp A→B at 1 h, 10 µM in series [20] was determined as 0.3 ×10⁻⁶ cm/s; in series [18] it was 0.32 ×10⁻⁶ cm/s. Moreover, 0.1 µM corresponded to half-maximal inhibition in series [16] (IC50). Further, in [17], the half-life is > 1.92 h. For the same compound, the logD in series [19] worked out at 2.8.
As for `CCOC(=O)c1cc(C#N)c(N2CCC(C(=O)NS(=O)(=O)Cc3ccccc3)CC2)nc1C`, the half-life in [3] is 5.1 h; in series [17], 1 h. Moreover, the AUC in [4] stood at 5.9 µM·h. In addition, the results for the ID80 in [5] and in series [7] were 0.44 µmol/kg/min and 0.009 µmol/kg/min, respectively. The Activity entry in series [21] and in [22] was “Non-toxic” throughout. Also, the result in series [9], in series [10] and in series [11] was inactive. The IC50 is 0.044 µM in [12], 0.022 µM in series [13], 0.014 µM in series [14] and 0.009 µM in series [15]. For the same compound, the Papp (usually the rate of passage across a membrane or cell layer, normalised by area and donor concentration) in [23] was found to be 1 ×10⁻⁶ cm/s. In addition, the log distribution coefficient (logD) in series [19] was found to be 2.8.
As to `CCCC(=O)c1cc(C#N)c(N2CCC(C(=O)NS(=O)(=O)Cc3ccc(F)cc3F)CC2)nc1C`, the solubility in [1] is > 100 µM. Moreover, the Papp A→B at 1 h, 10 µM in series [20] came out at 0.3 ×10⁻⁶ cm/s. In [16], this compound registered an IC50 of 0.042 µM. The half-life in series [17] was > 1.92 h. The logD in [19] was determined as 3.
For the compound `CCCC(=O)c1cc(C#N)c(N2CCC(C(=O)NS(=O)(=O)Cc3ccccc3)CC2)nc1SC`, the solubility in series [1] was > 100 µM. Further, the IC50 in series [16] is 0.017 µM. Besides, the half-life in [17] was > 1.92 h. In addition, the Papp A→B at 1 h, 10 µM in series [18] was 0.3 ×10⁻⁶ cm/s. Further, the logD in series [19] turned out to be 3.1.
As to `CCCC(=O)c1cc(C#N)c(N2CCC(C(=O)NS(=O)(=O)Cc3ccc(Cl)cc3)CC2)nc1C`, in series [1], the solubility was > 100 µM. Besides, in [20], the Papp A→B at 1 h, 10 µM stood at 0.4 ×10⁻⁶ cm/s. Also, the IC50 in series [16] was found to be 0.057 µM. Further, the half-life in series [17] is > 1.92 h. This compound gave a logD in [19] of 3.4.
On the same counts, the results for `CCCC(=O)c1cc(C#N)c(N2CCC(C(=O)NS(=O)(=O)Cc3ccccc3Cl)CC2)nc1C` are > 100 µM, 0.4 ×10⁻⁶ cm/s, 0.27 µM, > 1.92 h and 3.1.
In the same order, the values of `CCCC(=O)c1cc(C#N)c(N2CCC(C(=O)NS(=O)(=O)Cc3ccc(C)c(F)c3)CC2)nc1C` are > 100 µM, 0.7 ×10⁻⁶ cm/s, 0.13 µM, > 1.92 h and 3.4.
On the same counts, the results for `CCCC(=O)c1cc(C#N)c(N2CCC(C(=O)NS(=O)(=O)Cc3ccc(C)cc3)CC2)nc1C` are > 100 µM, 1.4 ×10⁻⁶ cm/s, 0.059 µM, > 1.92 h and 3.4.
